Test results reported in patent publication US12428406B2 (PMV Pharmaceuticals, Inc., priority 2019, dated 2025).

Biological target: T1, p53 Y220C (Homo sapiens, UniProt P04637, Y220C)
T1 construct: The recombinant protein was a truncation mutant containing only amino acids 94-312 of p53; made in house; host or cells: E. coli
Test: In vitro DNA binding activity assay (HTRF / TR-FRET): stabilization of p53 Y220C and increase of its DNA binding activity
Type: biochemical
Conditions: recombinant His-tagged p53 Y220C DNA binding domain (aa 94-312), biotin-labeled consensus DNA, incubated at 27° C. or 29° C. for 60 min
Description: The ability of a compound of the invention to stabilize p53 Y220C and increase the DNA binding activity of p53 Y220C was measured by a homogeneous time-resolved fluorescence (HTRF) assay. Recombinant His-tagged p53 Y220C used in the HTRF assay was expressed in the bacterium E. coli.
The binding of the recombinant His-tagged p53 Y220C protein and the biotin-labeled consensus DNA was measured using fluorescence resonance energy transfer (FRET). For the FRET assay, the binding between the p53 mutant and the DNA sequence was measured by detecting the fluorescence of the interaction between an anti-His antibody conjugated to allophycocyanin (APC) and streptavidin conjugated to europium to detect the biotin-labeled DNA.
The test compounds were prepared as 4.5 mM stock solutions in dimethyl sulfoxide (DMSO). The compounds of the disclosure were used to test the stabilization of p53 Y220C and increase in DNA binding activity of p53 Y220C. The stock solutions were then serially diluted 3-fold in DMSO, and 1.2 μL of the diluted solutions was added to each well of a 384-well polypropylene black plate.
The test and control samples were spun at 1200 rpm for 1 minute and incubated at room temperature for 15 minutes. […] The plates were spun at 1200 rpm for 1 minute and incubated at room temperature for 20 minutes. The assay signals were monitored by reading excitation at 340 nm, and emission fluorescence at 615 nm and 665 nm on a plate reader.
The percentage of activation of protein DNA binding in the presence of a compound of the invention compared to the absence of the compound was denoted by a SC150 value, which indicated the concentration of the compound required to increase the DNA binding activity by 50%. The SC150 values were calculated using either Prism™ or ActivityBase™.

T1 sequence (P04637 94-312, change not shown): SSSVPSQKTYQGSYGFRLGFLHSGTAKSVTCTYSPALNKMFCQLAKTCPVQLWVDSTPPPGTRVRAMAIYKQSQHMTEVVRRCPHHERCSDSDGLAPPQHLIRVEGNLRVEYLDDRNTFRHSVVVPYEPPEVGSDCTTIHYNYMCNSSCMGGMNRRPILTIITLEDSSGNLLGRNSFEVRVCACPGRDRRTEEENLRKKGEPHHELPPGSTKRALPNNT

Row | Structure (SMILES) | SC150 (concentration of the compound required to increase the DNA binding activity by 50%)
1 | NS(=O)(=O)c1ccc(NCC#Cc2cc3c(N[C@H]4CC[C@H](N5CCOCC5)CC4)cccc3n2CC(F)(F)F)c(OCF)c1 [Compound 344A, 3-(fluoromethoxy)-4-{[3-(4-{[(1R,4R)-4-(morpholin-4-yl)cyclohexyl]amino}-1-(2,2,2-trifluoroethyl)-1H-indol-2-yl)prop-2-yn-1-yl]amino}benzene-1-sulfonamide] | + (+ = 0 μM ≤ SC150 < 0.05 μM)
2 | CCS(=O)(=O)c1ccc(NCC#Cc2cc3c(NC4CCN(CC(O)COC)CC4)cccc3n2CC(F)(F)F)c(OC)c1 (stereo not drawn) [Compound 662A, 1-(4-{[2-(3-{[4-(ethanesulfonyl)-2-methoxyphenyl]amino}prop-1-yn-1-yl)-1-(2,2,2-trifluoroethyl)-1H-indol-4-yl]amino}piperidin-1-yl)-3-methoxypropan-2-ol] | + (+ = 0 μM ≤ SC150 < 0.05 μM)
3 | CCS(=O)(=O)c1ccc(NCC#Cc2cc3c(N[C@@H]4CCNC[C@@H]4F)cccc3n2CC(F)(F)F)c(OC)c1 [Compound 935A, 2-(3-{[4-(ethanesulfonyl)-2-methoxyphenyl]amino}prop-1-yn-1-yl)-N-[(3S,4R)-3-fluoropiperidin-4-yl]-1-(2,2,2-trifluoroethyl)-1H-indol-4-amine] | + (+ = 0 μM ≤ SC150 < 0.05 μM)
4 | CNS(=O)(=O)c1ccc(NCC#Cc2cc3c(NC4CCOCC4)cccc3n2CC(F)(F)F)c(OC)c1 [Compound 1008A] | + (+ = 0 μM ≤ SC150 < 0.05 μM)
5 | COCC(O)CN1CCC(Nc2cccc3c2cc(C#CCNc2ccc(S(C)(=O)=O)cc2OC)n3CC(F)(F)F)C1 (stereo not drawn) [Compound 455A, 1-{3-[(2-{3-{(4-methanesulfonyl-2-methoxyphenyl)amino]prop-1-yn-1-yl}-1-(2,2,2-trifluoroethyl)-1H-indol-4-yl)amino]pyrrolidin-1-yl}-3-methoxypropan-2-ol] | + (+ = 0 μM ≤ SC150 < 0.05 μM)
6 | COc1cc(S(C)(=O)=O)ccc1NCC#Cc1cc2c(N[C@H]3CC[C@H](N4CCOCC4)CC3)cccc2n1CC#N [Compound 174A, 2-(2-{3-[(4-methane-sulfonyl-2-methoxy-phenyl)amino]prop-1-yn-1-yl}-4-{[(1R,4R)-4-(morpholin-4-yl)cyclo-hexyl]amino}-1H-indol-1-yl)acetonitrile] | + (+ = 0 μM ≤ SC150 < 0.05 μM)
7 | COc1cc(C(=O)NCCO)ccc1NCC#Cc1cc2c(NC3CCN(C)CC3)cccc2n1CC(F)(F)F [Compound 496A] | + (+ = 0 μM ≤ SC150 < 0.05 μM)
8 | CN(C)[C@H]1CC[C@H](Nc2cccc3c2cc(C#CCNc2ccc(S(C)(=O)=O)cc2OCCO)n3CC(F)(F)F)CC1 [Compound 87A, 2-(5-methanesulfonyl-2-{[3-(4-{[(1R,4R)-4-(dimethylamino)cyclohexyl]amino}-1-(2,2,2-trifluoroethyl)-1H-indol-2-yl)prop-2-yn-1-yl]amino}phenoxy)ethan-1-ol] | + (+ = 0 μM ≤ SC150 < 0.05 μM)
9 | COCC(O)CN1CCC(Nc2cccc3c2c(C)c(C#CCNc2ccc(S(C)(=O)=O)cc2OC)n3CC(F)(F)F)CC1 (stereo not drawn) [Compound 676A, 1-{4-[(2-{3-[(4-methanesulfonyl-2-methoxyphenyl)amino]prop-1-yn-1-yl}-3-methyl-1-(2,2,2-trifluoroethyl)-1H-indol-4-yl)amino]piperidin-1-yl}-3-methoxypropan-2-ol] | +++ (+++ = 0.1 μM ≤ SC150 < 0.2 μM)
10 | CNC(=O)c1ccc(NCC#Cc2cc3c(NC4CCC(N5CC6(COC6)C5)CC4)cccc3n2CC(F)(F)F)c(OCCC#N)c1 [Compound 255A, 3-(2-cyanoethoxy)-N-methyl-4-{[3-(4-{[(1R,4R)-4-{2-oxa-6-azaspiro[3.3]heptan-6-yl}cyclohexyl]amino}-1-(2,2,2-trifluoroethyl)-1H-indol-2-yl)prop-2-yn-1-yl]amino}benzamide] | + (+ = 0 μM ≤ SC150 < 0.05 μM)
11 | COc1cc(S(C)(=O)=O)ccc1NCC#Cc1cc2c(NC3CCN(C[C@H]4COC(=O)O4)CC3)cccc2n1CC(F)(F)F [Compound 578A, (4S)-4-({4-[(2-{3-[(4-methanesulfonyl-2-methoxyphenyl)amino]prop-1-yn-1-yl}-1-(2,2,2-trifluoroethyl)-1H-indol-4-yl)amino]pipendin-1-yl}methyl)-1,3-dioxolan-2-one] | + (+ = 0 μM ≤ SC150 < 0.05 μM)
12 | COc1cc(S(C)(=O)=O)ccc1NCC#Cc1cc2c(N[C@H]3CCN(C)C[C@@H]3O)cccc2n1CC(F)(F)F (racemic) [Compound 767A, rac-(3R,4R)-4-[(2-{3-[(4-methanesulfonyl-2-methoxyphenyl)amino]prop-1-yn-1-yl}-1-(2,2,2-trifluoroethyl)-1H-indol-4-yl)amino]-1-methylpiperidin-3-ol] | + (+ = 0 μM ≤ SC150 < 0.05 μM)
13 | CC(C)N1CCC(Nc2cccc3c2cc(C#CCNc2ccc(S(C)(=O)=O)cc2OCF)n3CC(F)(F)F)CC1 [Compound 541A, 2-(3-{[2-(fluoromethoxy)-4-methanesulfonylphenyl]amino}prop-1-yn-1-yl)-N-[1-(propan-2-yl)piperidin-4-yl]-1-(2,2,2-trifluoroethyl)-1H-indol-4-amine] | + (+ = 0 μM ≤ SC150 < 0.05 μM)
14 | COCC(O)CN1CCC(Nc2cccc3c2cc(C#CCNc2ccc(S(C)(=O)=O)cc2OC)n3CC(C)(F)F)CC1 (stereo not drawn) [Compound 712A, 1-(4-{[1-(2,2-difluoropropyl)-2-{3-[(4-methanesulfonyl-2-methoxyphenyl)amino]prop-1-yn-1-yl}-1H-indol-4-yl]amino}piperidin-1-yl)-3-methoxypropan-2-ol] | ++ (++ = 0.05 μM ≤ SC150 < 0.1 μM)
15 | COc1cc(S(N)(=O)=O)ccc1NCC#Cc1cc2c(N[C@H]3CC[C@H](N4CCS(=O)(=O)CC4)CC3)cccc2n1CC(F)(F)F [Compound 372A, 3-methoxy-4-{[3-(4-{[(1R,4R)-4-(1,1-dioxo-1λ^6-thiomorpholin-4-yl)cyclohexyl]amino}-1-(2,2,2-trifluoroethyl)-1H-indol-2-yl)prop-2-yn-1-yl]amino}benzene-1-sulfonamide] | + (+ = 0 μM ≤ SC150 < 0.05 μM)
16 | CS(=O)(=O)c1ccc(NCC#Cc2cc3c(N[C@H]4CC[C@@H](N5CC6(COC6)C5)CC4)cccc3n2CC(F)(F)F)c(OCC#N)c1 [Compound 223A, 2-(5-methanesulfonyl-2-{[3-(4-{[(1S,4S)-4-{2-oxa-6-azaspiro[3.3]heptan-6-yl}cyclo-hexyl]amino}-1-(2,2,2-trifluoroethyl)-1H-indol-2-yl)prop-2-yn-1-yl]amino}phenoxy) acetonitrile] | + (+ = 0 μM ≤ SC150 < 0.05 μM)
17 | COC(=O)c1ccc(NCC#Cc2cc3c(N[C@@H]4CCN(CC(C)O)C[C@@H]4F)cccc3n2CC(F)(F)F)c(OC)c1 (mixture of isomers) [Compound 900A, methyl 4-{[3-(4-{[(3S,4R)-3-fluoro-1-(2-hydroxypropyl)piperidin-4-yl]amino}-1-(2,2,2-trifluoroethyl)-1H-indol-2-yl)prop-2-yn-1-yl]amino}-3-methoxybenzoate] | + (+ = 0 μM ≤ SC150 < 0.05 μM)
18 | COC[C@@H](O)CN1CCC(Nc2cccc3c2cc(C#CCNc2ccc(S(C)(=O)=O)cc2OC)n3CC(F)(F)F)CC1 [Compound 612A, (2S)-1-{4-[(2-{3-[(4-methanesulfonyl-2-methoxyphenyl)amino]prop-1-yn-1-yl}-1-(2,2,2-trifluoroethyl)-1H-indol-4-yl)amino]piperidin-1-yl}-3-methoxypropan-2-ol] | + (+ = 0 μM ≤ SC150 < 0.05 μM)
19 | COc1cc(S(=O)(=O)NC2CCOCC2)ccc1NCC#Cc1cc2c(NC3CCOCC3)cccc2n1CC(F)(F)F [Compound 993A, 3-methoxy-N-(oxan-4-yl)-4-[(3-{4-[(oxan-4-yl)amino]-1-(2,2,2-trifluoroethyl)-1H-indol-2-yl}prop-2-yn-1-yl)amino]benzene-1-sulfonamide] | + (+ = 0 μM ≤ SC150 < 0.05 μM)
20 | COC(=O)c1ccc(NCC#Cc2cc3c(N[C@H]4CCN(C[C@@H](C)O)C[C@H]4F)cccc3n2CC(F)(F)F)c(OC)c1 [Compound 905A, methyl 4-{[3-(4-{[(3R,4S)-3-fluoro-1-(2-hydroxypropyl)piperidin-4-yl]amino}-1-(2,2,2-trifluoroethyl)-1H-indol-2-yl)prop-2-yn-1-yl]amino}-3-methoxybenzoate] | + (+ = 0 μM ≤ SC150 < 0.05 μM)
21 | CCOC(=O)c1ccc(NCC#Cc2cc3c(N[C@H]4CCN(C(C)C)C[C@H]4F)cccc3n2CC(F)(F)F)c(OC)c1 [Compound 825A] | + (+ = 0 μM ≤ SC150 < 0.05 μM)
